Measured values from US10953027B2, “Active agents and methods of their use for the treatment of metabolic disorders and nonalcoholic fatty liver disease” (Flagship Pioneering Innovations V, Inc., priority 2018, dated 2021).

Key:
[1] = Assay 2. Stability in Simulated Intestinal Fluid (SIF); assay type: in vitro ADME; conditions: 1 μM, 37° C., SIF pH 6.7 with pancreatin
In short: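 Acylated compounds at 1 μM (from 1 mM DMSO stock) in fresh SIF: FaSSIF with pancreatin in pH 6.7 phosphate buffer, agitated at 37 °C. Aliquots from T0 onward quenched with 1 volume acetonitrile; LC/MS gives degradation rates.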

[2] = Assay 1. Stability in Simulated Gastric Fluid (SGF); assay type: in vitro ADME; conditions: 1 μM, 37° C., SGF pH 1.6 with pepsin
In short: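 Acylated compounds at a final 1 μM (diluted from 1 mM DMSO stock) were incubated at 37 °C in SGF of pH 1.6 NaCl buffer with FaSSIF powder and 0.1 mg/mL pepsin. Aliquots were quenched with acetonitrile at T0 and regular intervals, and degradation rates were determined by LC/MS.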

C57BL/6 DIO mice = test: DIO animal model of NAFLD/NASH in young mice (Example 16); assay type: in vivo; parameters: OGTT: unit not given beside the values; conditions: ad libitum in HFD; for % Weight change: 12 weeks; for OGTT: Day 82, 2 g/kg glucose PO; for OGTT / % HbA1c: ctrl HFD; for % Difference compared to ctrl: weight change vs HFD ctrl
Text: Species (number, sex, age/weight): C57BL/6 DIO mice (120+10 spares, male, ˜18 weeks of age) from Jackson Laboratories, Stock #380050. Note: 18 week old DIO mice sent sent with a minimum body weight of 39 grams. Spare animals may be used to replace study animals, as required, euthanized after completion of dose administration or transferred to Testing Facility Docket 07-12.
Cage Side Observations (Animal Health Checks): Cage side animal's health checks will be performed at least once daily to check for general health, mortality and moribundity. Clinical Observations: Clinical observations will be performed per exception. Body Weights: Body weights for all animals will be recorded prior to Day 1 and at least twice weekly thereafter, including prior to necropsy ([…]).
Dose Administration: Dosing for Groups 3-8 will be provided ad libitum in the diet. Dosing for Groups 9 (Saline) and 10 (Semaglutide at 123.4 μg/kg) in a 5 mL/kg volume, will begin on Day 1, and be performed 3 times weekly for 12 weeks by SC administration. Residual Test Article: All residual high fat diets will be frozen at nominally −20° C., and at the end of the study, several pellets of the diets for groups 2-9 (in 50-ml conical tubes) will be shipped to Sponsor, and the rest will be discarded. Residual control diets (group 1) will be stored ambient, and at the end of the study, several pellets in a 50 mL conical tube will be shipped to Sponsor and the rest is discarded. Residual test material for Group 10 will be stored at nominally −70° C., and at the end of the study, an aliquot of test material will be shipped to Sponsor, and the rest will be discarded.
(§1) Oral Glucose Tolerance Test (oGTT) On Day 82 (+/−2 days) an oGTT will be performed. Following an approximate 4 hour fast, 2 g/kg glucose (50% Dextrose diluted in sterile water for injection to a concentration of 0.4 g/mL) will be administered at 5 mL/kg via oral gavage (PO). Blood will be collected pre-glucose challenge (t=0) and at t=15, 30, 60, 90, and 120 minutes following the glucose challenge. Whole blood glucose levels will be evaluated at all time points using a handheld glucometer and will be reported in the Data Submission. This will be scheduled on a Tuesday or Thursday to avoid Group 9/10 dosing days.
as §1, with “Submission.” for “Submission. This will be scheduled on a Tuesday or Thursday to avoid Group 9/10 dosing days.”

Structure (SMILES)	Assay 2 (SIF) (% @ Remaining 4 hours) [1]	Assay 1 (SGF) (% Remaining @ 1 hours) [2]	% Weight change (C57BL/6 DIO mice) [%]	OGTT (C57BL/6 DIO mice)	% HbA1c (C57BL/6 DIO mice) [%]	% Difference compared to ctrl (C57BL/6 DIO mice) [%]
CC(=O)O[C@H]1OC[C@H](OC(C)=O)[C@H](OC(C)=O)[C@H]1OC(C)=O [Compound 53, (2R,3R,4S,5S)-tetrahydro-2H-pyran-2,3,4,5-tetrayl Tetraacetate]	A (A: <25% of the tested compound remaining)	C (C: >75% of the tested compound remaining)	10	25779	4.35	−13
CC(=O)Oc1cc(OC(C)=O)c2c(=O)c(OC(C)=O)c(-c3ccc(OC(C)=O)c(OC(C)=O)c3)oc2c1 [Compound 14, [2-acetoxy-4-(3,5,7-triacetoxy-4-oxo-chromen-2-yl)phenyl] acetate]	A (A: <25% of the tested compound remaining)	C (C: >75% of the tested compound remaining)	16	32591	6.93	−7
CC(=O)Oc1cc(OC(C)=O)c2c(c1)O[C@H](c1cc(OC(C)=O)c(OC(C)=O)c(OC(C)=O)c1)[C@H](OC(=O)c1cc(OC(C)=O)c(OC(C)=O)c(OC(C)=O)c1)C2 [Compound 4, [(2R,3R)-5,7-diacetoxy-2-(3,4,5-triacetoxyphenyl)chroman-3-yl] 3,4,5-triacetoxybenzoate]	A (A: <25% of the tested compound remaining)	C (C: >75% of the tested compound remaining)	19	25072	4.89	−4
